Read-outs that look alike come from different tables or passages of the source.
How the values were obtained:
[1] = target: T1, GST-cGB-PDE5 fusion protein (cGMP binding sites of human PDE5A) (Homo sapiens, UniProt O76074); experiment: cGMP binding assay with GST-cGB-PDE5 fusion protein; conditions: for competition with cGMP binding to GST-cGB-PDE5 at high concentration: 100 μM compound, cGMP 2 μM
T1 construct: made in house; host or cells: E. coli BL21 (DE3)
Text: RT-PCR method is used to obtain the cGB domain of PDE5 with forward and reverse primers designed from bovine PDE5A cDNA sequence (McAllister-Lucas L. M. et al, J. Biol. Chem. 268, 22863-22873, 1993) and the selection among PDE 1-10 families. 5′-3′, Inc. kits for total RNA followed by oligo (dT) column purification of mRNA are used with HT-29 cells. […] It is then cloned into pGEX-5X-3 glutathione-S-transferase (GST) fusion vector (Pharmacia Biotech )with tac promoter, and EcoR1 and XhoI cut sites. The fusion vector is then transfected into E. Coli BL21 (DE3) bacteria (Invitrogen). The transfected BL21 bacteria is grown to log phase, and then IPTG is added as an inducer. The induction is carried at 20° C. for 24 hrs. The bacteria are harvested and lysed. The soluble cell lysate is incubated with GSH conjugated Sepharose 4B (GSH-Sepharose 4B). The GST-cGB-PDE5 fusion protein can bind to the GSH-Sepharose beads, and the other proteins are washed off from beads with excessive cold PBS.
Then, the mixture is transferred to Brandel MB-24 cell harvester with GF/B as the filter membrane followed by 2 washes with 10 mL of cold 5 mM potassium buffer(pH 6.8). The membranes are then cut out and transferred to scintillation vials followed by the addition of 1 mL of H2O and 6 mL of Ready Safe™ liquid scintillation cocktail to each vial. The vials are counted on a Beckman LS 6500 scintillation counter.
The quenching by filter membrane or other debris are also calibrated.

[2] = target: T2, COX I (purified cyclooxygenase Type I) (Ovis aries, UniProt P05979); experiment: Cyclooxygenase (COX) inhibition, purified COX; format: biochemical, ram; conditions: arachidonic acid 100 μM, 2.0 min, 37° C.
T2 construct: The COX was purified from ram seminal vesicles; from tissue; host or cells: ram seminal vesicles
T2 sequence (P05979 25-600): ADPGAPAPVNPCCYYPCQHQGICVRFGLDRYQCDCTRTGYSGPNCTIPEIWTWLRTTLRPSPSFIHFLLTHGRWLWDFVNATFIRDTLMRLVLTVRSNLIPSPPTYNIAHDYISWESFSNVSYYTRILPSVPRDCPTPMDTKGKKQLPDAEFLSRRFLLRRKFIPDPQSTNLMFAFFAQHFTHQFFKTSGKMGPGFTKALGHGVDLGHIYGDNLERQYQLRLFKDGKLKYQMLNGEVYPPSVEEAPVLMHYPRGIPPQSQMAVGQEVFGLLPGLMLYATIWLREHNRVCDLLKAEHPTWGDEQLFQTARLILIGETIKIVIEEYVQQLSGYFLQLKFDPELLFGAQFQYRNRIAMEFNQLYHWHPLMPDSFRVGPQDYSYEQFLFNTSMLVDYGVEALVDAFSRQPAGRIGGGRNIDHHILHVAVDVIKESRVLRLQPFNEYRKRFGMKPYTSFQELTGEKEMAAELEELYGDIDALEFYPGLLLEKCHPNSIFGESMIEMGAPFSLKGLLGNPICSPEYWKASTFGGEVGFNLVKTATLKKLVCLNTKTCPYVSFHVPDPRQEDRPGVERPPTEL
Procedure: COX catalyzes the formation of prostaglandins and thromboxane by the oxidative metabolism of arachidonic acid. The compound of Example 1 of this invention, as well as a positive control, (sulindac sulfide) were evaluated to determine whether they inhibited purified cyclooxygenase Type I (see Table 1 below).
The compounds of this invention were evaluated for inhibitory effects on purified COX. The COX was purified from ram seminal vesicles, as described by Boopathy, R. and Balasubramanian, J., 239:371-377, 1988. COX activity was assayed as described by Evans, A. T., et al., “Actions of Cannabis Constituents on Enzymes Of Arachidonate Metabolism Anti-Inflammatory Potential,” Biochem. Pharmacol., 36:2035-2037, 1987. Briefly, purified COX was incubated with arachidonic acid (100 μM) for 2.0 min at 37° C. in the presence or absence of test compounds. The assay was terminated by the addition of TCA, and COX activity was determined by absorbance at 530 nm.

native bovine PDE5 = native bovine PDE5 (Bos taurus, UniProt Q28156); conditions: read-out: Kd of cGMP binding, native bovine PDE5; cited from earlier work
U937 cells = experiment: apoptosis induction of U937 cells (active caspase 3 immunofluorescence); format: cell-based; conditions: U937 cells, 24 hours
Procedure: U937 cells (from ATCC Rockville, Md.) were grown in RPMI media supplemented with 5% FCS, glutamine, antibiotic/antimycotic and sodium pyruvate. Total RNA was isolated from two U937 cultures, one treated with 5 nM TPA for 48 hours and one grown in normal media as listed above, using the Rouche High Pure RNA Isolation Kit (cat# 1 828 665) as per manufacturers protocol. cDNA was then synthesized from the total RNA using GibcoBRL SuperscriptII (Cat # 18064-022) reverse transcriptase as per manufacturers protocol. The resulting cDNA was used as a template for RT-PCR reactions using primer sets specific for PDE2 (forward: […], reverse: […]) or PDE5 (forward: […], reverse: […]). mRNA for PDE2 and 5 were both present in the untreated U937 cells. Upon treatment with TPA, the relative amounts of PDE2 mRNA increased 5 fold. Therefore, U937 cells treated with TPA and driven to differentiate into an activated macrophage like state have elevated levels of PDE2 mRNA (see FIG. 1).
The presence of PDE2 and PDE5 protein within U937 cells was confirmed by indirect immunofluorescence (IIF). U937 cells were cultured as above. Two U937 cultures, one grown in the presence of 5 nM TPA for 48 hours and one grown in normal media were processed. All cultures were collected by centrifugation (Shandon Cytospin, 2 minutes @ 600 rpm) onto poly-L lysine-coated slides and immediately fixed in fresh 3% paraformaldehyde buffered in PBS for 10 minutes. Adherent cultures were grown on coverslips and fixed as above. Cells were permeablized in 0.2% triton-100 for 2 minutes. Slides were blocked with blocking buffer (5% goat serum, 5% glycerol, 1% gelatin from cold water fish skin and 0.04% NaN3 in PBS) for 1 hour at room temperature.
Adherent cells were dislodged by treatment with trypsin EDTA for 5 minutes at 37° C. Cells were then processed for IIF as described above, except that an antibody specific for active caspase 3 was used (as per manufacturer's protocol) instead of antibodies to PDE2 or 5 (Promega Cat. #G7481). The anti-active caspase 3 antibody was diluted 1:200 in blocking buffer and processed according to the manufacturer's protocol. The resulting slides were observed under a fluorescent microscope and a digital images were obtained.
The level of apoptosis in U937 cells was quantified by scoring 500 consecutive cells for the presence of active caspase 3.
The cells were harvested and processed for IIF as described above using an antibody that specifically recognizes active caspase 3. […] Therefore, the inhibition of only PDE4 or PDE5 alone (i.e. without the inhibition of PDE2) is not sufficient to induce apoptosis in U937 cells.

T1 sequence (O76074 46-539 limits assumed): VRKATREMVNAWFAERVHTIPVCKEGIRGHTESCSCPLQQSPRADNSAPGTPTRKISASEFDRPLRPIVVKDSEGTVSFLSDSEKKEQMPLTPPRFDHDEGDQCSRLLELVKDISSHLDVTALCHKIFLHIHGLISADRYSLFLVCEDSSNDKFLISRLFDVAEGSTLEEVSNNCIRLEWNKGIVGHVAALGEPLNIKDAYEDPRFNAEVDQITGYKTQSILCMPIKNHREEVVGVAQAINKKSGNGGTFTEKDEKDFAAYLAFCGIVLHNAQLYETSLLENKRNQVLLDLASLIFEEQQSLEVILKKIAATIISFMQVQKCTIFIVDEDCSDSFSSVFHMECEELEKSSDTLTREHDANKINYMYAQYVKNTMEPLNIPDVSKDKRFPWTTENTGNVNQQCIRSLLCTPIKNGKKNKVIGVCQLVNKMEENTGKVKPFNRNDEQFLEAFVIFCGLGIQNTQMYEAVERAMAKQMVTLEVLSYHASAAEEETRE

Compound | competition with cGMP in binding to the cGMP binding sites of GST-cGB-PDE5 ([1]; 3H-cGMP 2 μM) | also measured
CCCCOC1C2OP(=O)(O)OCC2OC1n1cnc2c(N)ncnc21 (stereo not drawn) [2′-O-butyl-cAMP] | did not compete | –
CCCCOC1C2OP(=O)(O)OCC2OC1n1cnc2c(=O)[nH]c(N)nc21 (stereo not drawn) [2′-O-butyl-cGMP] | did not compete | –
Nc1ncnc2c1ncn2[C@@H]1O[C@@H]2COP(=O)(O)O[C@H]2[C@H]1O [Cyclic AMP] | – | competition with cGMP in binding to the cGMP binding sites of GST-cGB-PDE5 [1]: did not compete
O=c1[nH]cnc2c1ncn2[C@@H]1O[C@@H]2COP(=O)(O)O[C@H]2[C@H]1O [Cyclic IMP] | – | competition with cGMP binding to GST-cGB-PDE5 at high concentration [1]: partially compete
CC1=C(CC(=O)NCc2ccccc2)c2cc(F)ccc2/C1=C\c1ccncc1 [Example 1, (Z)-5-Fluoro-2-Methyl-(4-Pyridinylidene)-3-(N-Benzyl)-Indenylacetamide] | – | inhibition at 100 µM [2]: < 25%
Nc1nc2c(nc(Br)n2[C@@H]2O[C@@H]3COP(=O)(O)O[C@H]3[C@H]2O)c(=O)[nH]1 [Example 8-bromo-cGMP, 8-bromo-cGMP] | – | competition with cGMP binding to GST-cGB-PDE5 at high concentration [1]: partially compete
O=C(O)C1CCN(c2nc(NCc3ccc4c(c3)OCO4)c3cc(Cl)ccc3n2)CC1 [Example E4021] | None of the PDE5 inhibitors showed any competition | –
CSc1ccc(/C=C2/C(C)=C(CC(=O)O)c3cc(F)ccc32)cc1 [Sulindac sulfide, sulindac sulfide, reference compound] | None of the PDE5 inhibitors showed any competition | inhibition at 100 µM [2]: 86%
Nc1ccn([C@@H]2O[C@@H]3COP(=O)(O)O[C@H]3[C@H]2O)c(=O)n1 [cCMP, cyclic CMP] | did not compete | –
Nc1nc2c(ncn2[C@@H]2O[C@@H]3COP(=O)(O)O[C@H]3[C@H]2O)c(=O)[nH]1 [cGMP, cyclic 3′,5′-guanosine monophosphate] | specifically bound | Kd ([1]; read-out: Kd of cGMP binding to GST-cGB-PDE5 fusion protein, two cGMP binding sites): 1600 ± 200 nM; Kd (native bovine PDE5): 1300 nM
O=c1ccn([C@@H]2O[C@@H]3COP(=O)(O)O[C@H]3[C@H]2O)c(=O)[nH]1 [cUMP, cyclic UMP] | did not compete | –
CC1=C(CC(=O)O)c2cc(F)ccc2/C1=C\c1ccc(S(C)(=O)=O)cc1 [exisulind] | None of the PDE5 inhibitors showed any competition | –
COc1ccc(C2CNC(=O)C2)cc1OC1CCCC1 (stereo not drawn) [rolipram, reference compound] | – | levels of apoptosis compared to normal background (active caspase 3) (U937 cells; 0.5 uM): No increase in the levels of apoptosis
CCCc1nn(C)c2c(=O)[nH]c(-c3cc(S(=O)(=O)N4CCN(C)CC4)ccc3OCC)nc12 [sildenafil, reference compound] | – | levels of apoptosis compared to normal background (active caspase 3) (U937 cells; 0.3 nM): No increase in the levels of apoptosis
CCCOc1ccccc1-c1nc2nn[nH]c2c(=O)[nH]1 [zaprinast] | None of the PDE5 inhibitors showed any competition | –

— patent US20030073740A1, “Methods for treatment of lupus erythematosus” (priority 2001, published 2003)
